Values after ≈ are worked out from the molar mass of the structure shown.
What was measured:
physchem = details: 25 °C, fassif, thermodynamic from solid
[1] = Kinetic solubility analysis (CLND: total chemiluminescent nitrogen determination); details: 1.0% DMSO, 24-hour incubation at ambient temperature, maximum theoretical concentration 100 μM; for pH 2 solubility: 0.1N HCl; for pH 7 solubility: 1×PBS buffer (pH 7.4)
[2] = Solubility in simulated intestinal fluids (FaSSIF / FeSSIF); details: 25 °C, thermodynamic from solid
[3] = Oral bioavailability PK in dog; assay type: in vivo; details: Beagle dog, oral gavage, solution vehicle 5% ethanol, 20% propylene glycol, 75% water; based on observed exposure of Intermediate 5 in plasma
[4] = fasted state simulated intestinal fluid (FaSSIF), fassif
[5] = fed state simulated intestinal fluid (FeSSIF), fessif

pH 2 solubility [1] [μM] | pH 7 solubility [1] [μM] | solubility [2, 4] [µg/mL] | solubility [2, 5] [µg/mL] | Dog F % (solution) [3] [%] | SMILES | solubility (physchem) [µg/mL] | solubility ([2]; fassif) [µg/mL]
9 | 2 | 17 (≈ 15.4 µM) | 83 (≈ 74.9 µM) | – | CC(C)(C#Cc1ccc(-c2ccc(Cl)c3c(N(C(=O)[C@H]4C[C@H](NC(=N)N)C4)S(C)(=O)=O)nn(CC(F)(F)F)c23)c([C@H](Cc2cc(F)cc(F)c2)NC(=O)Cn2nc(C(F)(F)F)c3c2C(F)(F)[C@@H]2C[C@H]32)n1)S(C)(=O)=O [Compound 9, trans-N-(4-chloro-7-(2-((S)-1-(2-((3bS,4aR)-5,5-difluoro-3-(trifluoromethyl)-3b,4,4a,5-tetrahydro-1H-cyclopropa[3,4]cyclopenta[1,2-c]pyrazol-1-yl)acetamido)-2-(3,5-difluorophenyl)ethyl)-6-(3-methyl-3-(methylsulfonyl)but-1-yn-1-yl)pyridin-3-yl)-1-(2,2,2-trifluoroethyl)-1H-indazol-3-yl)-3-guanidino-N-(methylsulfonyl)cyclobutane-1-carboxamide] | – | –
0.11 | 0.32 | – | – | 16 | CC(C)(C#Cc1ccc(-c2ccc(Cl)c3c(NS(C)(=O)=O)nn(CC(F)(F)F)c23)c([C@H](Cc2cc(F)cc(F)c2)NC(=O)Cn2nc(C(F)(F)F)c3c2C(F)(F)[C@@H]2C[C@H]32)n1)S(C)(=O)=O [Intermediate 5, N—((S)-1-(3-(4-chloro-3-(methylsulfonamido)-1-(2,2,2-trifluoroethyl)-1H-indazol-7-yl)-6-(3-methyl-3-(methylsulfonyl)but-1-yn-1-yl)pyridin-2-yl)-2-(3,5-difluorophenyl)ethyl)-2-((3bS,4aR)-5,5-difluoro-3-(trifluoromethyl)-3b,4,4a,5-tetrahydro-1H-cyclopropa[3,4]cyclopenta[1,2-c]pyrazol-1-yl)acetamide, reference compound] | – | –
1 | 44 | 21 (≈ 19.4 µM) | 6 (≈ 5.55 µM) | – | CC(C)(C#Cc1ccc(-c2ccc(Cl)c3c(N(C(=O)[C@@H]4C[C@H]4C(=O)O)S(C)(=O)=O)nn(CC(F)(F)F)c23)c([C@H](Cc2cc(F)cc(F)c2)NC(=O)Cn2nc(C(F)(F)F)c3c2C(F)(F)[C@@H]2C[C@H]32)n1)S(C)(=O)=O [Compound 16, (1R,2R)-2-((4-chloro-7-(2-((S)-1-(2-((3bS,4aR)-5,5-difluoro-3-(trifluoromethyl)-3b,4,4a,5-tetrahydro-1H-cyclopropa[3,4]cyclopenta[1,2-c]pyrazol-1-yl)acetamido)-2-(3,5-difluorophenyl)ethyl)-6-(3-methyl-3-(methylsulfonyl)but-1-yn-1-yl)pyridin-3-yl)-1-(2,2,2-trifluoroethyl)-1H-indazol-3-yl)(methylsulfonyl)carbamoyl)cyclopropane-1-carboxylic acid] | – | –
1 | 98 | 802 | 536 | – | CC(C)(C#Cc1ccc(-c2ccc(Cl)c3c(N(C(=O)N4CCC[C@H]4COP(=O)(O)O)S(C)(=O)=O)nn(CC(F)(F)F)c23)c([C@H](Cc2cc(F)cc(F)c2)NC(=O)Cn2nc(C(F)(F)F)c3c2C(F)(F)[C@@H]2C[C@H]32)n1)S(C)(=O)=O [Compound 29, ((S)-1-((4-chloro-7-(2-((S)-1-(2-((3bS,4aR)-5,5-difluoro-3-(trifluoromethyl)-3b,4,4a,5-tetrahydro-1H-cyclopropa[3,4]cyclopenta[1,2-c]pyrazol-1-yl)acetamido)-2-(3,5-difluorophenyl)ethyl)-6-(3-methyl-3-(methylsulfonyl)but-1-yn-1-yl)pyridin-3-yl)-1-(2,2,2-trifluoroethyl)-1H-indazol-3-yl)(methylsulfonyl)carbamoyl)pyrrolidin-2-yl)methyl dihydrogen phosphate] | – | –
2 | 75 | 816 (≈ 665 µM) | 487 (≈ 397 µM) | – | CC(C)(C#Cc1ccc(-c2ccc(Cl)c3c(N(C(=O)c4ccccc4C(=O)OCOP(=O)(O)O)S(C)(=O)=O)nn(CC(F)(F)F)c23)c([C@H](Cc2cc(F)cc(F)c2)NC(=O)Cn2nc(C(F)(F)F)c3c2C(F)(F)[C@@H]2C[C@H]32)n1)S(C)(=O)=O [Compound 19, (phosphonooxy)methyl 2-((4-chloro-7-(2-((S)-1-(2-((3bS,4aR)-5,5-difluoro-3-(trifluoromethyl)-3b,4,4a,5-tetrahydro-1H-cyclopropa[3,4]cyclopenta[1,2-c]pyrazol-1-yl)acetamido)-2-(3,5-difluorophenyl)ethyl)-6-(3-methyl-3-(methylsulfonyl)but-1-yn-1-yl)pyridin-3-yl)-1-(2,2,2-trifluoroethyl)-1H-indazol-3-yl)(methylsulfonyl)carbamoyl)benzoate] | – | –
1 | 61 | 401 (≈ 350 µM) | 355 (≈ 310 µM) | – | CC(C)(C#Cc1ccc(-c2ccc(Cl)c3c(N(C(=O)[C@@H]4C[C@@H]4COP(=O)(O)O)S(C)(=O)=O)nn(CC(F)(F)F)c23)c([C@H](Cc2cc(F)cc(F)c2)NC(=O)Cn2nc(C(F)(F)F)c3c2C(F)(F)[C@@H]2C[C@H]32)n1)S(C)(=O)=O [Compound 11] | – | –

SMILES | pH 2 solubility [1] [μM] | pH 7 solubility [1] [μM] | solubility [2, 4] [µg/mL] | solubility [2, 5] [µg/mL] | Dog F % (solution) [3] [%] | solubility (physchem) [µg/mL] | solubility ([2]; fassif) [µg/mL]
CC(C)(C#Cc1ccc(-c2ccc(Cl)c3c(N(C(=O)[C@H]4C[C@H](C(=O)O)C4)S(C)(=O)=O)nn(CC(F)(F)F)c23)c([C@H](Cc2cc(F)cc(F)c2)NC(=O)Cn2nc(C(F)(F)F)c3c2C(F)(F)[C@@H]2C[C@H]32)n1)S(C)(=O)=O [Compound 13, (1S,3r)-3-((4-chloro-7-(2-((S)-1-(2-((3bS,4aR)-5,5-difluoro-3-(trifluoromethyl)-3b,4,4a,5-tetrahydro-1H-cyclopropa[3,4]cyclopenta[1,2-c]pyrazol-1-yl)acetamido)-2-(3,5-difluorophenyl)ethyl)-6-(3-methyl-3-(methylsulfonyl)but-1-yn-1-yl)pyridin-3-yl)-1-(2,2,2-trifluoroethyl)-1H-indazol-3-yl)(methylsulfonyl)carbamoyl)cyclobutane-1-carboxylic acid] | 1 | 15 | – | – | – | 9 (≈ 8.22 µM) | –
CC(C)(C#Cc1ccc(-c2ccc(Cl)c3c(N(C(=O)N4CCC[C@H]4C(=O)OCOP(=O)(O)O)S(C)(=O)=O)nn(CC(F)(F)F)c23)c([C@H](Cc2cc(F)cc(F)c2)NC(=O)Cn2nc(C(F)(F)F)c3c2C(F)(F)[C@@H]2C[C@H]32)n1)S(C)(=O)=O [Compound 27, (phosphonooxy)methyl ((4-chloro-7-(2-((S)-1-(2-((3bS,4aR)-5,5-difluoro-3-(trifluoromethyl)-3b,4,4a,5-tetrahydro-1H-cyclopropa[3,4]cyclopenta[1,2-c]pyrazol-1-yl)acetamido)-2-(3,5-difluorophenyl)ethyl)-6-(3-methyl-3-(methylsulfonyl)but-1-yn-1-yl)pyridin-3-yl)-1-(2,2,2-trifluoroethyl)-1H-indazol-3-yl)(methylsulfonyl)carbamoyl)-L-prolinate] | 2 | 68 | – | – | – | 512 (≈ 420 µM) | –
CC(C)(C#Cc1ccc(-c2ccc(Cl)c3c(N(C(=O)[C@H]4C[C@@H](C(=O)O)C4)S(C)(=O)=O)nn(CC(F)(F)F)c23)c([C@H](Cc2cc(F)cc(F)c2)NC(=O)Cn2nc(C(F)(F)F)c3c2C(F)(F)[C@@H]2C[C@H]32)n1)S(C)(=O)=O [Compound 14, ((1R,3s)-3-((4-chloro-7-(2-((S)-1-(2-((3bS,4aR)-5,5-difluoro-3-(trifluoromethyl)-3b,4,4a,5-tetrahydro-1H-cyclopropa[3,4]cyclopenta[1,2-c]pyrazol-1-yl)acetamido)-2-(3,5-difluorophenyl)ethyl)-6-(3-methyl-3-(methylsulfonyl)but-1-yn-1-yl)pyridin-3-yl)-1-(2,2,2-trifluoroethyl)-1H-indazol-3-yl)(methylsulfonyl)carbamoyl)cyclobutane-1-carboxylic acid)] | 1 | 8 | – | – | – | 9 (≈ 8.22 µM) | –
CC(C)(C#Cc1ccc(-c2ccc(Cl)c3c(N(C(=O)[C@H]4C[C@H]4C(=O)OCOP(=O)(O)O)S(C)(=O)=O)nn(CC(F)(F)F)c23)c([C@H](Cc2cc(F)cc(F)c2)NC(=O)Cn2nc(C(F)(F)F)c3c2C(F)(F)[C@@H]2C[C@H]32)n1)S(C)(=O)=O [Compound 12, (phosphonooxy)methyl (1R,2S)-2-((4-chloro-7-(2-((S)-1-(2-((3bS,4aR)-5,5-difluoro-3-(trifluoromethyl)-3b,4,4a,5-tetrahydro-1H-cyclopropa[3,4]cyclopenta[1,2-c]pyrazol-1-yl)acetamido)-2-(3,5-difluorophenyl)ethyl)-6-(3-methyl-3-(methylsulfonyl)but-1-yn-1-yl)pyridin-3-yl)-1-(2,2,2-trifluoroethyl)-1H-indazol-3-yl)(methylsulfonyl)carbamoyl)cyclopropane-1-carboxylate] | 1 | 71 | – | – | – | 2100 (≈ 1760 µM) | –
CC(C)(C#Cc1ccc(-c2ccc(Cl)c3c(N(C(=O)N4CCC[C@H]4CN(CC(=O)O)C(=O)OCOP(=O)(O)O)S(C)(=O)=O)nn(CC(F)(F)F)c23)c([C@H](Cc2cc(F)cc(F)c2)NC(=O)Cn2nc(C(F)(F)F)c3c2C(F)(F)[C@@H]2C[C@H]32)n1)S(C)(=O)=O [Compound 33, N—(((S)-1-((4-chloro-7-(2-((S)-1-(2-((3bS,4aR)-5,5-difluoro-3-(trifluoromethyl)-3b,4,4a,5-tetrahydro-1H-cyclopropa[3,4]cyclopenta[1,2-c]pyrazol-1-yl)acetamido)-2-(3,5-difluorophenyl)ethyl)-6-(3-methyl-3-(methylsulfonyl)but-1-yn-1-yl)pyridin-3-yl)-1-(2,2,2-trifluoroethyl)-1H-indazol-3-yl)(methylsulfonyl)carbamoyl)pyrrolidin-2-yl)methyl)-N-(((phosphonooxy)methoxy)carbonyl)glycine] | 1 | 100 | – | – | – | – | 5020 (≈ 3840 µM)
